Laboratory results: PubChem BioAssay (NCI)
Several values for one entry are separate records, joined by “and”; a condition that tells them apart may be missing. Identical values can stand only once.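 Growth conditions: 96-well plates. Treatment: test compound, 48 hours, 5 concentrations. Analysis: linear interpolation between bracketing concentrations; unreached endpoints set to highest concentration. GI50 = concentration required for 50% inhibition of growth. At the TGI there is no net growth.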

Key:
Assay in all cases: inhibition of tumour cell growth, NCI panel, 48 h
M14 melanoma = system: M14 melanoma
SR leukemia = system: SR leukemia
NCI/ADR-RES ovarian = system: NCI/ADR-RES ovarian
HOP-62 NSCLC = system: HOP-62 NSCLC
RXF 393 renal = system: RXF 393 renal
A549 NSCLC = system: A549 NSCLC
786-0 renal = system: 786-0 renal
SW-620 colon = system: SW-620 colon
SK-MEL-5 melanoma = system: SK-MEL-5 melanoma
RPMI-8226 leukemia = system: RPMI-8226 leukemia

Row | Structure (SMILES) | TGI (M14 melanoma) | TGI (SR leukemia) | TGI (NCI/ADR-RES ovarian) | TGI (HOP-62 NSCLC) | TGI (RXF 393 renal) | TGI (A549 NSCLC) | TGI (786-0 renal) | TGI (SW-620 colon) | TGI (SK-MEL-5 melanoma) | GI50 (M14 melanoma) | GI50 (SR leukemia) | GI50 (NCI/ADR-RES ovarian) | GI50 (HOP-62 NSCLC) | GI50 (RXF 393 renal) | GI50 (RPMI-8226 leukemia) | TGI (RPMI-8226 leukemia) | GI50 (A549 NSCLC) | GI50 (786-0 renal) | GI50 (SW-620 colon) | GI50 (SK-MEL-5 melanoma)
1 | C=C(C)C1CCC2=CC(CC3(C)OC3C3=CC(C(=O)OC)=C(C1)O3)OC2=O (stereo unspecified) | > 100 µM | > 100 µM | > 100 µM | > 100 µM | > 100 µM | > 100 µM | > 100 µM | > 100 µM | > 100 µM |  |  |  |  |  |  |  |  |  |  | 
2 | C[C@@]1(C(=O)O)CCC[C@]2(C)C1CC[C@]13C[C@@](O)(CO)[C@](O)(CC[C@]12O)C3 (stereo partly specified) | > 100 µM | > 100 µM | > 100 µM | > 100 µM | > 100 µM | > 100 µM | > 100 µM | > 100 µM | > 100 µM | > 100 µM | > 100 µM | > 100 µM | > 100 µM | > 100 µM | > 100 µM | > 100 µM | > 100 µM | > 100 µM | > 100 µM | > 100 µM
3 | CCCCSc1nc(N)c2cn[nH]c2n1 | 29.5 µM | 36.4 µM | 37.4 µM | 48.8 µM | > 44 µM | > 73.6 µM | 57.3 µM | > 70 µM | 33.2 µM | 13.3 µM | 14.1 µM | 16.3 µM | 22.5 µM | 9.25 µM | 17.1 µM | 37.9 µM | 27.6 µM | 21.2 µM | 29.1 µM | 15.5 µM
4 | COc1c(-c2ccc3c(c2)OCO3)oc2cc(O)cc(O)c2c1=O | > 100 µM | > 100 µM | > 100 µM | 55.5 µM | 42.5 µM | > 100 µM | > 100 µM |  | > 100 µM |  |  |  |  |  |  | > 100 µM |  |  |  | 
5 | COc1cc(C2c3cc4c(cc3[C@@H](Nc3ccc([N+](=O)[O-])cc3)C3COC(=O)[C@H]23)OCO4)cc(OC)c1O (stereo partly specified) | 12.7 µM | 0.802 µM and 2.18 µM | > 93.6 µM | 0.947 µM and 2.07 µM | 6.93 µM | 3.72 µM | 3.35 µM | > 91.7 µM | 3.94 µM | 0.543 µM | 0.045 µM |  |  |  | 0.256 µM | 7.22 µM | 0.157 µM and 0.166 µM | 0.377 µM | 0.783 µM | 0.74 µM
6 | Cc1c(NC(=O)Nc2c(Cl)cccc2Cl)c(=O)n(-c2ccccc2)n1C | > 100 µM | > 100 µM | > 100 µM | > 100 µM | > 100 µM | > 100 µM | > 100 µM | > 100 µM | > 100 µM |  |  |  |  |  |  | > 100 µM |  |  |  | 
7 | CSc1ccc(NC(=O)Nc2cc(C)ccn2)cc1 | > 100 µM | > 100 µM | > 100 µM | > 100 µM | > 100 µM | > 100 µM | > 100 µM | > 100 µM | > 100 µM |  |  |  |  |  |  | > 100 µM |  |  |  | 
8 | Cc1c(Cl)cccc1NC(=O)c1sc2nc3c(cc2c1N)C(=O)CCC3 |  | > 100 µM | 12.9 µM | 29.8 µM | 1.11 µM | > 100 µM | > 59.4 µM | > 100 µM | 2.78 µM | 0.0655 µM | 0.0725 µM | 0.0463 µM | 0.102 µM | 0.037 µM | 0.234 µM | > 55.4 µM | 0.0619 µM | 0.0917 µM | 0.0484 µM | 0.13 µM
9 | Cc1ccc(N=Nc2c(O)ccc3n[nH]nc23)cc1 | > 100 µM | 64.8 µM | 73.2 µM | > 100 µM | 82.1 µM | > 100 µM | > 100 µM | > 100 µM | 13.2 µM | 27.8 µM | 14 µM | 10.2 µM | 28 µM | 13.2 µM | 5.52 µM | 55.4 µM | 14.2 µM | 20.3 µM | 12.3 µM | 3.19 µM
10 | Cn1cc(C2=C(c3cc[nH]c3)C(=O)NC2=O)c2ccccc21 | > 25 µM | > 25 µM | > 25 µM | > 25 µM | > 25 µM | > 25 µM | > 25 µM | > 25 µM | > 25 µM | > 25 µM | 12 µM | > 25 µM | > 25 µM | 18.3 µM | > 25 µM | > 25 µM | > 25 µM | > 25 µM | > 25 µM | > 25 µM
11 | Cc1nc2sc(C(=O)Nc3ccccc3)c(N)c2cc1C(O)c1ccccc1 (stereo unspecified) | 15.2 µM | > 30.5 µM | 28.8 µM | > 53.8 µM | 1.88 µM | > 100 µM | 20 µM | > 100 µM | 1.63 µM | 0.182 µM | 0.0434 µM | 0.314 µM | 0.448 µM | 0.27 µM | 0.417 µM | 11.7 µM | 0.421 µM | 0.553 µM | 0.283 µM | 0.338 µM
12 | CNCC(=O)NC(CO)C(=O)NC(CO)C(=O)NC1C(C(N)=O)OC(n2ccc(N)nc2=O)C(O)C1O (stereo unspecified) | 35.3 µg/mL | > 50 µg/mL | 28 µg/mL | 32.3 µg/mL | 35.4 µg/mL | > 50 µg/mL | > 50 µg/mL | > 50 µg/mL | > 50 µg/mL | 9.22 µg/mL | 16.8 µg/mL | 5.79 µg/mL | 6.44 µg/mL | 6.4 µg/mL | > 50 µg/mL | > 50 µg/mL | 17 µg/mL | 12.5 µg/mL | > 50 µg/mL | 16.1 µg/mL
13 | COC(=O)c1c2c(c(C)[n+]([O-])c1C)C(=O)C(NCc1ccc(F)cc1)=CC2=O | 2.69 µM | > 100 µM | 5.53 µM | 22.5 µM | 3.51 µM | 5.66 µM | 30.1 µM | 3.2 µM | 1 µM | 1.21 µM | 1.7 µM | 1.68 µM | 2.4 µM | 1.56 µM | 2 µM | 6.82 µM | 1.79 µM | 2.85 µM | 1.17 µM | 0.3 µM
14 | CC1=NN(c2cccc(Cl)c2)C(=O)/C1=C\C=C\c1ccccc1 | 3.57 µM | > 100 µM | > 100 µM | 11.1 µM | 3.92 µM | > 100 µM | 4.65 µM | 3.44 µM | 5.76 µM | 1.7 µM | 2.36 µM | 3.4 µM | 3.18 µM | 2.12 µM | 2.91 µM | 14.3 µM | 16.4 µM | 2.16 µM | 1.74 µM | 2.27 µM
15 | Cc1nn(Cc2ccccc2)cc1C(=O)Nc1sc2c(c1C(N)=O)CCC(=O)C2 | 14.4 µM | 8.81 µM | 10.1 µM | > 100 µM | 7.1 µM | > 100 µM | 28.6 µM | 5.78 µM | 3.33 µM | 3.42 µM | 1.41 µM | 3.36 µM | 2.45 µM | 2.35 µM | 1.18 µM | 4.09 µM | 4.39 µM | 3.55 µM | 0.985 µM | 1.83 µM
16 | [Cl][Hg][c]1ccc2ccccc2c1 | 2.96 µM | 5.86 µM | 8.84 µM | 11.8 µM | 3.04 µM | 27.1 µM | 3.21 µM | 3.62 µM | 3.13 µM | 1.46 µM | 0.257 µM | 2.41 µM | 3.93 µM | 1.62 µM | 2.5 µM | 10.1 µM | 12.1 µM | 1.76 µM | 1.77 µM | 1.25 µM
17 | C(=C\c1ccncc1)/c1ccncc1 | > 100 µM | > 100 µM | > 100 µM | > 100 µM | > 100 µM | > 100 µM | > 100 µM | > 100 µM | > 100 µM | > 100 µM | > 100 µM | > 100 µM | > 100 µM | > 100 µM |  |  | > 100 µM | > 100 µM | > 100 µM | > 100 µM
18 | O=C(NCc1ccco1)C1CCN(S(=O)(=O)c2ccc(Cl)cc2)CC1 |  | > 100 µM | > 100 µM | > 100 µM | > 100 µM | > 100 µM | > 100 µM | > 100 µM | > 100 µM |  | 72.8 µM | > 100 µM | > 100 µM | > 100 µM | 94.9 µM | > 100 µM | 78.3 µM | > 100 µM | > 100 µM | 53.5 µM
19 | CCC[n+]1cc2cc3c(cc2c2c1-c1cc4c(cc1C2)OCO4)OCO3 (tested in a mixture with another compound) | 7.81 µM | 1.75 µM | > 100 µM | 6.53 µM |  | > 52.4 µM | 10 µM | 12.8 µM | 1.6 µM | 2.49 µM | 0.287 µM | > 85.5 µM | 0.546 µM |  | 0.545 µM | 5.5 µM | 2.77 µM | 0.46 µM | 0.733 µM | 0.371 µM
20 | COc1ccc(/C=C2\COc3ccc(O)c(O)c3C2=O)cc1OC | 3.31 µM | 10.7 µM | 17.4 µM | 39.3 µM | 2.91 µM | > 100 µM | 3.87 µM |  | 3.4 µM | 1.43 µM | 0.537 µM | 1.7 µM | 5.98 µM | 1.44 µM | 0.336 µM | 1.51 µM | 2.6 µM | 1.51 µM |  | 1.79 µM
